Measured values published in the supplement of paper PMC10307832.

Compound: COC1=CC=C(C=C1)CN2C=CC3=C2C=C(C=C3)C(=O)NO + O=C(c1cc(Cc2n[nH]c(=O)c3ccccc23)ccc1F)N1CCN(C(=O)C2CC2)CC1 [Olaparib] (partner 8 µM)
Experiment: relative viability (nuclei count vs DMSO), 5 days (fraction); higher = more cells survive
Settings: first compound 0.08 µM
Outline: (§1)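 Relative viability is defined as nuclei in treated wells over nuclei in vehicle wells. Duplicate plates were run and medians reported. Lung cancer cell lines in 1536-well plates were dosed by pin tool one day after seeding, with one drug or with a fixed anchor-drug dose plus five library-drug doses (not always all listed) in √10 steps, and nuclei were counted after 5 days.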

Cell Line	relative viability
HCC-78	0.748
PC-14	0.242
LC-2-ad	0.696
NCI-H1651	0.168
HCC-827	0.573
LCLC-103H	0.743
RERF-LC-KJ	0.829
NCI-H3122	0.624
BEN	1.09
NCI-H2085	0.803
A-427	0.251
NCI-H727	0.68
NCI-H838	0.622
201T	0.846
NCI-H1666	0.746
NCI-H650	0.351
NCI-H1993	0.699
HCC-44	0.974
NCI-H647	0.557
NCI-H2126	0.869
NCI-H1755	0.77
PC-3 [JPC-3]	1.1
NCI-H1792	0.438
NCI-H2087	0.564

Same assay, conditions: first compound 0.253 µM

Cell Line	relative viability
NCI-H358	0.614
HCC-78	0.776
EKVX	0.802
EPLC-272H	0.716
LK-2	0.792
PC-14	0.224
LXF-289	1.05
LC-2-ad	0.343
NCI-H1651	0.158
HCC-827	0.697
LCLC-103H	0.777
RERF-LC-KJ	0.825
NCI-H3122	0.642
BEN	1.03
LCLC-97TM1	0.422
NCI-H2085	0.723

Cell Line	relative viability
NCI-H727	0.709
NCI-H838	0.843
NCI-H1793	0.911
201T	0.833
LOU-NH91	0.95
NCI-H1666	0.737
NCI-H650	0.417
ChaGo-K-1	0.459
NCI-H1993	1.31
HCC-44	0.931
NCI-H647	0.537
NCI-H2126	0.945
NCI-H1755	0.89
NCI-H1792	0.578
NCI-H2087	0.595

Same assay, conditions: first compound 0.8 µM

Cell Line	relative viability
NCI-H358	0.59
HCC-78	0.815
EKVX	0.739
EPLC-272H	0.981
LK-2	0.787
PC-14	0.306
LXF-289	1.11
LC-2-ad	0.681
NCI-H1651	0.194
HCC-827	0.655
LCLC-103H	0.773
RERF-LC-KJ	0.986
NCI-H3122	0.616
BEN	0.95
LCLC-97TM1	0.375
NCI-H2085	0.842
A-427	0.71

Cell Line	relative viability
NCI-H727	0.755
NCI-H838	0.796
NCI-H1793	0.898
201T	0.881
LOU-NH91	0.928
NCI-H1666	0.745
NCI-H650	0.452
ChaGo-K-1	0.424
NCI-H1993	1.25
HCC-44	1.01
NCI-H647	0.422
NCI-H2126	0.961
NCI-H1755	0.831
PC-3 [JPC-3]	1.11
NCI-H1792	0.445
NCI-H2087	0.676

Same assay, conditions: first compound 2.53 µM

Cell Line	relative viability
NCI-H358	0.544
HCC-78	0.968
EKVX	0.868
EPLC-272H	0.916
LK-2	0.688
PC-14	0.236
LXF-289	1.11
LC-2-ad	0.688
NCI-H1651	0.182
HCC-827	0.68
LCLC-103H	0.781
RERF-LC-KJ	0.816
NCI-H3122	0.6
BEN	0.913
LCLC-97TM1	0.36
NCI-H2085	0.777
A-427	0.711

Cell Line	relative viability
NCI-H727	0.649
NCI-H838	0.735
NCI-H1793	0.893
201T	0.844
LOU-NH91	0.903
NCI-H1666	0.682
NCI-H650	0.353
ChaGo-K-1	0.409
NCI-H1993	1.06
HCC-44	1
NCI-H647	0.495
NCI-H2126	0.956
NCI-H1755	0.955
PC-3 [JPC-3]	1.19
NCI-H1792	0.447
NCI-H2087	0.524

Same assay, conditions: first compound 8 µM

Cell Line	relative viability
NCI-H358	0.49
HCC-78	0.535
EKVX	0.758
EPLC-272H	0.686
LK-2	0.722
PC-14	0.215
LXF-289	1.11
LC-2-ad	0.709
NCI-H1651	0.179
HCC-827	0.531
LCLC-103H	0.708
RERF-LC-KJ	0.806
NCI-H3122	0.583
BEN	0.924
LCLC-97TM1	0.38
NCI-H2085	0.768
A-427	0.724

Cell Line	relative viability
NCI-H727	0.622
NCI-H838	0.696
NCI-H1793	0.865
201T	0.832
LOU-NH91	0.894
NCI-H1666	0.818
NCI-H650	0.418
ChaGo-K-1	0.324
NCI-H1993	0.885
HCC-44	1.06
NCI-H647	0.547
NCI-H2126	0.874
NCI-H1755	0.867
PC-3 [JPC-3]	1.14
NCI-H1792	0.561
NCI-H2087	0.56

Compound: C[C@]1(c2nc3c(C(N)=O)cccc3[nH]2)CCCN1 [Veliparib] + NC(=O)Nc1cc(-c2cccc(F)c2)sc1C(=O)N[C@H]1CCCNC1 [AZD7762] (partner 0.2 µM)
Experiment: as above
Settings: first compound 0.02 µM
Outline: as §1

Cell Line	relative viability
HCC-78	0.599
LK-2	0.32
PC-14	0.357
LXF-289	1.06
LC-2-ad	0.606
NCI-H1651	0.455
HCC-827	0.26
LCLC-103H	0.794
RERF-LC-KJ	1.07
NCI-H3122	0.937
BEN	0.599
LCLC-97TM1	0.164
NCI-H2085	0.813
A-427	0.768
NCI-H727	0.627
NCI-H838	0.998
NCI-H1793	0.532
201T	0.656
LOU-NH91	0.768
NCI-H1666	0.872
NCI-H650	1.07
ChaGo-K-1	0.73
HCC-44	1.04
NCI-H647	0.53
NCI-H2126	0.957
NCI-H1755	0.479
PC-3 [JPC-3]	0.82
NCI-H1792	0.479
NCI-H2087	1.29

Same assay, conditions: first compound 0.06325 µM

Cell Line	relative viability
NCI-H358	0.487
HCC-78	0.434
EKVX	0.731
EPLC-272H	0.122
LK-2	0.367
PC-14	0.313
LXF-289	1.06
LC-2-ad	0.822
NCI-H1651	0.424
HCC-827	0.335
LCLC-103H	0.73
RERF-LC-KJ	0.896
NCI-H3122	1.01
BEN	0.644
LCLC-97TM1	0.264
NCI-H2085	0.984

Cell Line	relative viability
A-427	0.719
NCI-H727	0.495
NCI-H838	0.914
NCI-H1793	0.518
201T	0.778
LOU-NH91	0.705
NCI-H1666	0.823
NCI-H650	0.798
ChaGo-K-1	0.854
NCI-H1993	0.875
HCC-44	0.913
NCI-H647	0.415
NCI-H2126	0.975
NCI-H1755	0.543
NCI-H1792	0.485
NCI-H2087	1.23

Same assay, conditions: first compound 0.2 µM

Cell Line	relative viability
NCI-H358	0.671
HCC-78	0.664
EKVX	0.833
EPLC-272H	0.21
LK-2	0.461
PC-14	0.335
LXF-289	1.12
LC-2-ad	0.865
NCI-H1651	0.419
HCC-827	0.2
LCLC-103H	0.702
RERF-LC-KJ	0.999
NCI-H3122	0.986
BEN	0.664
LCLC-97TM1	0.191
NCI-H2085	1.05
A-427	0.755

Cell Line	relative viability
NCI-H727	0.784
NCI-H838	0.963
NCI-H1793	0.592
201T	0.645
LOU-NH91	0.75
NCI-H1666	0.799
NCI-H650	1.14
ChaGo-K-1	0.83
NCI-H1993	0.934
HCC-44	0.936
NCI-H647	0.429
NCI-H2126	1.03
NCI-H1755	0.5
PC-3 [JPC-3]	0.875
NCI-H1792	0.548
NCI-H2087	1.5

Same assay, conditions: first compound 0.6325 µM

Cell Line	relative viability
NCI-H358	0.552
HCC-78	0.643
EKVX	0.728
EPLC-272H	0.174
LK-2	0.465
PC-14	0.385
LXF-289	1.09
LC-2-ad	0.876
NCI-H1651	0.46
HCC-827	0.236
LCLC-103H	0.75
RERF-LC-KJ	0.933
NCI-H3122	0.971
BEN	0.793
LCLC-97TM1	0.274
NCI-H2085	1.03
A-427	0.724

Cell Line	relative viability
NCI-H727	0.681
NCI-H838	0.94
NCI-H1793	0.56
201T	0.639
LOU-NH91	0.723
NCI-H1666	0.918
NCI-H650	0.96
ChaGo-K-1	0.83
NCI-H1993	0.664
HCC-44	0.934
NCI-H647	0.552
NCI-H2126	1.07
NCI-H1755	0.443
PC-3 [JPC-3]	0.898
NCI-H1792	0.569
NCI-H2087	1.3

Same assay, conditions: first compound 2 µM

Cell Line	relative viability
NCI-H358	0.676
HCC-78	0.591
EKVX	0.806
EPLC-272H	0.166
LK-2	0.492
PC-14	0.327
LXF-289	1.14
LC-2-ad	0.801
NCI-H1651	0.412
HCC-827	0.222
LCLC-103H	0.687
RERF-LC-KJ	1.03
NCI-H3122	1.01
BEN	0.625
LCLC-97TM1	0.31
NCI-H2085	0.911
A-427	0.782

Cell Line	relative viability
NCI-H727	0.603
NCI-H838	0.937
NCI-H1793	0.581
201T	0.689
LOU-NH91	0.821
NCI-H1666	0.881
NCI-H650	0.944
ChaGo-K-1	0.824
NCI-H1993	0.607
HCC-44	1.07
NCI-H647	0.394
NCI-H2126	0.834
NCI-H1755	0.444
PC-3 [JPC-3]	0.773
NCI-H1792	0.533
NCI-H2087	1.19

Compound: C[C@]1(c2nc3c(C(N)=O)cccc3[nH]2)CCCN1 [Veliparib] + Nc1ncn([C@H]2C[C@H](O)[C@@H](CO)O2)c(=O)n1 [Decitabine] (partner 2 µM)
Experiment: as above
Settings: first compound 0.02 µM
Outline: as §1

Cell Line	relative viability
NCI-H358	0.208
HCC-78	0.637
LK-2	0.259
